Results as given in patent US5378689A, “Peptides having renin inhibitory activity, their preparation and use” (Sankyo Company, Limited, priority 1989, dated 1995).

Target: T1, human renin (Homo sapiens, UniProt P00797)
T1 sequence (P00797 67-406): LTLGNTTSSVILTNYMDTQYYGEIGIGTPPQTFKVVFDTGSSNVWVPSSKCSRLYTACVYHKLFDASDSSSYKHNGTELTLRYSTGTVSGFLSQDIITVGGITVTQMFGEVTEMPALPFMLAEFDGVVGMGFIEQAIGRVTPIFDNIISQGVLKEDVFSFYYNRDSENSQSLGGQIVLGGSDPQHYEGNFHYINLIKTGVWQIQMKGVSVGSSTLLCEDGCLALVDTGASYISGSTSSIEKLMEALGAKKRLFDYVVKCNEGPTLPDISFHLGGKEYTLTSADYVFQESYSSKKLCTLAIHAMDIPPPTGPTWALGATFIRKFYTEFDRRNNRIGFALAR
Assay: Inhibition of renin activity (human renin, sheep angiotensinogen, remaining angiotensin I assayed)
Type: biochemical
Details: 1×10^-7 M test compound, pH 7.3, 37° C., 10 minutes, mean of 3 or 4 experiments; for inhibition at 0.1 µM: read-out: Inhibitory activity (%) Against Human Renin (1 × 10^-7 M)
Method: The ability of various compounds of the invention to inhibit the activity of renin was determined according to the following method, which follows essentially the procedure of Kokubu et al. [Hypertension, 5, 191-197 (1983)].
Specifically, each test compound was dissolved in 60% v/v aqueous ethanol. Human renin activity in the presence and absence of each compound was measured using sheep angiotensinogen. The total volume of 1 ml of assay mixture contained 0.1 mole/liter phosphate buffer (pH 7.3), human renin (equivalent to 0.5 ng angiotensin I per ml per minute), sheep angiotensinogen (equivalent to 200 ng angiotensin I), 1×10^-7 M of the test compound, 6% v/v ethanol and angiotensinase inhibitors (10 mmole/liter sodium ethylenediaminetetraacetate and 3.4 mmole/liter 8-hydroxyquinoline). The mixture was allowed to react for 10 minutes at 37° C., and then the reaction was stopped by placing the reaction tube in a boiling water bath for 5 minutes. The mixture was then centrifuged and the supernatant (0.05-0.1 ml) was used to assay remaining angiotensin I.
An identical experiment was carried out, as a control, except that the test compound was omitted. From the values obtained were calculated the % inhibition of renin activity achieved by each test compound. The results are shown in the following Table 2, in which the compounds of the invention are identified by the numbers of the Examples given hereafter in which are described their preparation. The values given are the mean of 3 or 4 experiments.

inhibition at 0.1 µM | Inhibitory activity (%) Against Human Renin (1 × 10^-7 M) | SMILES
95.6% | – | CNC(=O)[C@H](C)C[C@H](O)[C@H](CC1CCCCC1)NC(=O)[C@H](Cc1cscn1)NC(=O)[C@@H](CC(=O)N1CCOCC1)Cc1ccccc1 [Example 5, (2R, 4S, 5S)-5-{N-[2(R)-Benzyl-3-(morpholinocarbonyl)-propionyl]-3-(4-thiazolyl)-L-alanyl}amino-6-cyclohexyl-4-hydroxy-2,N-dimethylhexanamide]
– | 96.2% | CCCCNC(=O)[C@H](C)C[C@H](O)[C@H](CC1CCCCC1)NC(=O)[C@H](Cc1cscn1)NC(=O)[C@@H](CC(=O)N(C)Cc1ccccc1)Cc1ccccc1 [Example 8, (2R, 4S, 5S)-5-{N-[2(R)-Benzyl-3-(N-benzyl-N-methylaminocarbonyl)propionyl]-3-(4-thiazolyl)-L-alanyl}-amino-N-butyl-6-cyclohexyl-4-hydroxy-2-methylhexanamide]
91.6% | – | CCCCNC(=O)[C@H](C)C[C@H](O)[C@H](CC1CCCCC1)NC(=O)[C@H](Cc1cscn1)NC(=O)[C@@H](CC(=O)N(C)Cc1ccccc1)Cc1ccc(OC)cc1 [Example 11, (2R, 4S, 5S)-N-Butyl-6-cyclohexyl-4-hydroxy-5-{N-[2(R)-(4-methoxybenzyl)-3-(N-benzyl-N-methylaminocarbonyl)-propionyl]-3-(4-thiazolyl)-L-alanyl}amino-2-methylhexanamide]
– | 95.7% | CNC(=O)[C@H](C)C[C@H](O)[C@H](CC1CCCCC1)NC(=O)[C@H](Cc1cscn1)NC(=O)[C@@H](CC(=O)N(C)Cc1ccccc1)Cc1ccccc1 [Example 14, (2R, 4S, 5S )-5-{N-[2(R)-Benzyl-3-(N-benzyl-N-methylaminocarbonyl)propionyl]-3-(4-thiazolyl)-L-alanyl}-amino-6-cyclohexyl-4-hydroxy-2,N-dimethylhexanamide]
94.8% | – | CCCCNC(=O)[C@@H](C[C@H](O)[C@H](CC1CCCCC1)NC(=O)[C@H](Cc1cscn1)NC(=O)[C@@H](CC(=O)N(C)Cc1ccccc1)Cc1ccccc1)C(C)C [Example 16, (2S, 4S, 5S)-5-{N-[2(R)-Benzyl-3-(N-benzyl-N-methylaminocarbonyl)propionyl]-3-(4-thiazolyl)-L-alanyl}amino-N-butyl-6-cyclohexyl-4-hydroxy-2-isopropylhexanamide]

Second part, the compound before the results:

SMILES | inhibition at 0.1 µM | Inhibitory activity (%) Against Human Renin (1 × 10^-7 M)
CNC(=O)[C@@H](C[C@H](O)[C@H](CC1CCCCC1)NC(=O)[C@H](Cc1cscn1)NC(=O)[C@@H](CC(=O)N1CCOCC1)Cc1ccccc1)C(C)C [Example 1, (2S, 4S, 5S)-5-{N-[2(R)-Benzyl-3-(morpholinocarbonyl)-propionyl]-3-(4-thiazolyl)-L-alanyl}amino-6-cyclohexyl-4-hydroxy-2-isopropyl-N-methylhexanamide] | 95.2% | –
CCCCNC(=O)[C@@H](C[C@H](O)[C@H](CC1CCCCC1)NC(=O)[C@H](Cc1cscn1)NC(=O)[C@@H](CC(=O)N1CCOCC1)Cc1ccccc1)C(C)C [Example 2, (2S, 4S, 5S)-5-{N-[2(R)-Benzyl-3-(morpholinocarbonyl)-propionyl]-3-(4-thiazolyl)-L-alanyl}amino-N-butyl-6-cyclohexyl-4-hydroxy-2-isopropylhexanamide] | 96% | –
CNC(=O)[C@@H](C[C@H](O)[C@H](CC1CCCCC1)NC(=O)[C@H](Cc1cscn1)NC(=O)[C@@H](CC(=O)N1CCOCC1)Cc1ccc(OC)cc1)C(C)C [Example 3, (2S, 4S, 5S)-5-{N-[2(R)-(4-Methoxybenzyl)-3-(morpholinocarbonyl)propionyl]-3-(4-thiazolyl)-L-alanyl}amino-6-cyclohexyl-4-hydroxy-2-isopropyl-N-methylhexanamid] | 93.1% | –
CCCCNC(=O)[C@@H](C[C@H](O)[C@H](CC1CCCCC1)NC(=O)[C@H](Cc1cscn1)NC(=O)[C@@H](CC(=O)N1CCOCC1)Cc1ccc(OC)cc1)C(C)C [Example 4] | – | 96.9%
CCCCNC(=O)[C@H](C)C[C@H](O)[C@H](CC1CCCCC1)NC(=O)[C@H](Cc1cscn1)NC(=O)[C@@H](CC(=O)N1CCOCC1)Cc1ccccc1 [Example 6] | – | 96.1%
